Experimental data from PMC9555642 (PLoS ONE, 2022).
pIC50: −log10 of the molar value.

Legend:
[1] = test system: Haemophilus influenzae; experiment: Pilot test of bactericidal effect, bacteria in media; format: cell-based; conditions: bacteria suspended in media incubated for one hour with ACY-1083, pilot experiment
[2] = test system: healthy HBEC at ALI cultures; experiment: TEER in healthy HBEC ALI cultures, TNF challenge; format: cell-based, human; conditions: TNF-challenged healthy HBEC, p = 0.0187
[3] = test system: COPD HBEC ALI cultures; experiment: Paracellular permeability (FITC-dextran) in unchallenged ALI cultures; format: cell-based, human; conditions: 10 μM basolaterally for eight days, no challenge, four COPD donors, p = 0.0023
Experimental: Passage one cells were seeded into T75 cell culture flasks (250,000 cells/flask) and expanded in PneumaCult ExPlus medium (StemCell Technologies, Vancouver, Canada) at 37°C, 5% CO2. Once cells reached 70% confluency, they were dissociated with TrypLE Express dissociation media (Thermo Fisher Scientific, Waltham, USA) and frozen at -150°C in ExPlus with 10% DMSO. Passage two cells were thawed and seeded (20,000 cells/membrane) into 24-well HTS Transwell plates (Corning, Wiesbaden, Germany) for air-liquid interface (ALI) culturing. Cells were expanded in ExPlus medium until >50% confluent (four days). Apical medium was then removed, and basolateral medium was replaced with PneumaCult ALI medium (StemCell Technologies). Medium was changed three times per week during a four-week long differentiation phase.
The paracellular permeability was determined by using fluorescein isothiocyanate labeled 4kD-dextran (Sigma-Aldrich, St. Louis, USA). 18 hours after addition of 0.2 mg FITC-dextran in 200 μL medium to the apical side of the ALI cultures, the fluorescence in the basolateral medium was measured using PHERAstar FSX (excitation 485 nm and emission 520 nm) (BMG LABTECH, Ortenberg, Germany). The time point was chosen for optimal window in the assays as well as practical reasons and has been kept consistent in between different stimulations throughout this work. […]

[4] = Secondary pharmacology panel of >190 in vitro radioligand binding and enzyme assays; conditions: hits: HDAC5, HDAC7, COX2 and DAT
Experimental: (§1) Second pharmacology screening was performed at Eurofins Pharma Discovery Services in a panel of 190 in vitro radioligand binding and enzyme assays covering a diverse set of enzymes, receptors, ion channels, and transporters.

[5] = target: T1, HDAC9 (Homo sapiens, UniProt Q9UKV0); experiment: HDAC enzymatic activity (Eurofins); format: biochemical; conditions: Class IIA; ACY-1083 mean of two separate measurements, Ricolinostat and Tubastatin A one measurement
T1 construct: purchased Eurofins Pharma Discovery Services 2611

[6] = test system: deacetylation of α-tubulin; parameters: method as in PMID 28267067; conditions: read-out: cell potency (IC50), inhibition of deacetylation of α-tubulin; cited from earlier work
[7] = test system: healthy HBEC at ALI cultures; experiment: Ciliary beat frequency; format: cell-based, human; conditions: TNF-challenged healthy HBEC
Experimental: For cilia beating frequency (CBF) and cell velocity measurements, donor cells of primary healthy HBECs were amplified on rat tail collagen I coated flasks and seeded on 12-mm-diameter Transwell inserts.
CBF was quantified for the differentiated healthy HBECs treated with vehicle, TNF, and TNF + ACY-1083. The plates containing the pseudostratified epithelia were incubated at 37 °C with 5% CO2 in the 3i Marianis/Yokogawa Spinning-Disk Confocal microscope (Leica Microsystems, Sugar land, USA) as reported in our previous publications. High-speed time-lapse videos were taken at 32X air at 100 Hz with a total of 250 frames using a scientific Hamamatsu C11440-42U30 CMOS camera (Bridgewater, USA). Five areas were imaged per insert. A Matlab (R2020a) script (validated against SAVA) (previously described in [58] was used to determine average CBF per video, to generate a heat map indicating CBF.

[8] = target: T2, dopamine active transporter (DAT) (Homo sapiens, UniProt Q01959); experiment: Secondary pharmacology panel (Eurofins); format: binding
T2 construct: purchased Eurofins Pharma Discovery Services
Experimental: as §1

[9] = target: T3, HDAC7 (Homo sapiens, UniProt Q8WUI4); experiment: HDAC enzymatic activity (Eurofins); format: biochemical; conditions: Class IIA; ACY-1083 mean of two separate measurements, Ricolinostat and Tubastatin A one measurement
T3 construct: purchased Eurofins Pharma Discovery Services 2610
T3 sequence (Q8WUI4 1-952): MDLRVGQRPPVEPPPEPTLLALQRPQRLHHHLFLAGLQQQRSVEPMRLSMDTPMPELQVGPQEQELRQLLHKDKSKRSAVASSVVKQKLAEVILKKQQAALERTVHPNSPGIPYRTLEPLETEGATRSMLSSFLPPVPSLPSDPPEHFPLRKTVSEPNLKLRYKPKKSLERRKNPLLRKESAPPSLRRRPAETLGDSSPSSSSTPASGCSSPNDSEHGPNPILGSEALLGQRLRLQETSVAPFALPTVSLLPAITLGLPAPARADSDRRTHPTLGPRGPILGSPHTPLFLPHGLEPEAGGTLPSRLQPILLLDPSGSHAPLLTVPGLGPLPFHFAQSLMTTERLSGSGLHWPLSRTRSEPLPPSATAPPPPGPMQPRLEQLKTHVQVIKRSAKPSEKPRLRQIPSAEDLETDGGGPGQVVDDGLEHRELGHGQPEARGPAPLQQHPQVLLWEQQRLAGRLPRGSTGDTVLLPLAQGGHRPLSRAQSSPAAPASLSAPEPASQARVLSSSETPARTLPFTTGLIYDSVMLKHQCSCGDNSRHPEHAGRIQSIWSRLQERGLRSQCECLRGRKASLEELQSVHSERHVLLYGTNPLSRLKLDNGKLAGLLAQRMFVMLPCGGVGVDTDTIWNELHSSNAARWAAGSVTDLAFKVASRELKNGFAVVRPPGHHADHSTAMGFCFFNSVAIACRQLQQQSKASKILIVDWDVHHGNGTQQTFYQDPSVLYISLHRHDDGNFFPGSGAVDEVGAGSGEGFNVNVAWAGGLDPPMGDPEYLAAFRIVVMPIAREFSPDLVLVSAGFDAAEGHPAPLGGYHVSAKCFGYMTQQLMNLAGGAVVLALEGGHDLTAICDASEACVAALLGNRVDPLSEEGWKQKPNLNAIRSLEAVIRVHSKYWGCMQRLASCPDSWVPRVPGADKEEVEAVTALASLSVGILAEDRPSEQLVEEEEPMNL

T2 sequence (Q01959 whole entry, species assumed): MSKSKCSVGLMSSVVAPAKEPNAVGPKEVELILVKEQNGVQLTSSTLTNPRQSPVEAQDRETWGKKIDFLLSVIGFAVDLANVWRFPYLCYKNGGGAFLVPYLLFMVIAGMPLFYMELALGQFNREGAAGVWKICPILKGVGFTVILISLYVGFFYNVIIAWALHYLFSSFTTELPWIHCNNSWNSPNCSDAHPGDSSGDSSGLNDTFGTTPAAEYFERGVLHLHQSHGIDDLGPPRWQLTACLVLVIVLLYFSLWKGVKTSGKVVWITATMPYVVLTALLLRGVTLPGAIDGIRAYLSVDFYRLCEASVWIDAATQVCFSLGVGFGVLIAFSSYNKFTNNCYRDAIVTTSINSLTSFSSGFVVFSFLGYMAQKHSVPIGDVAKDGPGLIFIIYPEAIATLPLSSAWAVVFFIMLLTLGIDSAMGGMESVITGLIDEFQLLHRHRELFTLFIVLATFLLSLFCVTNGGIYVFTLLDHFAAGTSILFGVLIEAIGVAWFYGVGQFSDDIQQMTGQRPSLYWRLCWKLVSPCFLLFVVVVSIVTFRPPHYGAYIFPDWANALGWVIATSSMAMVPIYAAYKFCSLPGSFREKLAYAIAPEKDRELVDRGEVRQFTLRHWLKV
T1 sequence (Q9UKV0 whole entry): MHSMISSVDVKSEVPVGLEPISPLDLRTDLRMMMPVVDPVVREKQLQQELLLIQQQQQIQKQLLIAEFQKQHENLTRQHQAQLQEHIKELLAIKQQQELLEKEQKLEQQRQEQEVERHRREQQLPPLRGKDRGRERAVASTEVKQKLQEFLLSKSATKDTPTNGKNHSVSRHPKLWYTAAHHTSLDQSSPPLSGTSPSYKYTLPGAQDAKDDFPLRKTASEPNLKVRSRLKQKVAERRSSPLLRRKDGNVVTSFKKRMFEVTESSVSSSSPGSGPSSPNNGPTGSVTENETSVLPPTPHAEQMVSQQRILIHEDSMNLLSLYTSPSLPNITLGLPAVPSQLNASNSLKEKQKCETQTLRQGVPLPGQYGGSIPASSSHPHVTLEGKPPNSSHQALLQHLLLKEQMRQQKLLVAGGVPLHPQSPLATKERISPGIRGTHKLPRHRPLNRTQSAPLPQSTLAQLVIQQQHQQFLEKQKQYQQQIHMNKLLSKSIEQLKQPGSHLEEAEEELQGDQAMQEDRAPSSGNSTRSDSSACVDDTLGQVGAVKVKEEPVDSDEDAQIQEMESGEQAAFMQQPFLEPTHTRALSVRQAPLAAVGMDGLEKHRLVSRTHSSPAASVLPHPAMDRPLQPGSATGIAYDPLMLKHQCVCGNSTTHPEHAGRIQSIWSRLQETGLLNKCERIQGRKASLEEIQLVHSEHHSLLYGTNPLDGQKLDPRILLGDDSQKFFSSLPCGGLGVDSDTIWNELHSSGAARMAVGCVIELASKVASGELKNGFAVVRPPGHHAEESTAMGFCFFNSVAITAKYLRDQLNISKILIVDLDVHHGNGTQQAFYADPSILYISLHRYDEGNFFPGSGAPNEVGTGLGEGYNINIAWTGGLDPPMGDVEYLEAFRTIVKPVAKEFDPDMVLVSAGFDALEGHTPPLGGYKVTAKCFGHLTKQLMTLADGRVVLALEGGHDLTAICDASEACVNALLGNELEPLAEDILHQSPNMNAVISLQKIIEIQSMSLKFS

In the case of ACY-1083, the “bactericidal effect (bacterial counts)” value [1] was “no effect on bacterial counts”, the TEER [2] was “reversed this decrease” and the “passage of FITC-dextran (paracellular permeability)” value [3] was “significantly reduced”. The “hits below 10 μM in HDAC isoform panel and secondary pharmacology safety panels” value [4] was 4, the pIC50 [5] was 4.71 and the pIC50 [6] was 7.00 to 7.52. The CBF [7] was “no effect”, the pIC50 [8] was 6.43 and the pIC50 [9] was 5.19.
